Test results: ChEMBL document CHEMBL3885861, “Open TG-GATES”

Species: Rattus norvegicus
Experiment: Open TG-GATES - Regimen: Daily Repeat
Assay type: toxicity, organism-based, Sprague-Dawley
Parameters: regimen Daily Repeat, gender Male, age 6 weeks
Conditions: in vivo, po, 30 mg/kg, […], route gavage, dose level Low; for KIDNEY_L / KIDNEY_R / KIDNEY_TOTAL: tissue Kidney; for LIVER: tissue Liver; for A/G / ALP / ALT / AST / BUN / CRE / Ca / Cl / DBIL / GLC / IP / K / LDH / Na / PL / RALB / TBIL / TC / TG / TP / gamma-GTP: tissue Plasma

Question: What does the source list for `Brc1ccccc1` [BROMOBENZENE]?
Answer: Lym (tissue Blood, time 28 day): 75.6%; MCH (tissue Blood, time 28 day): 19.7 pg; MCHC (tissue Blood, time 28 day): 35%; MCV (tissue Blood, time 28 day): 56.2 fL; Mono (tissue Blood, time 28 day): 3%; Neu (tissue Blood, time 28 day): 19%; PT (tissue Blood, time 28 day): 12.6 s; Plat (tissue Blood, time 28 day): 103.7 x10_4/uL; RBC (tissue Blood, time 28 day): 762.2 x10_4/ul; Ret (tissue Blood, time 28 day): 2.7%; WBC (tissue Blood, time 28 day): 101.5 x10_2/uL; KIDNEY_L (time 7 day): 1 g; KIDNEY_R (time 7 day): 1 g; KIDNEY_TOTAL (time 7 day): 2 g; KIDNEY_L (time 14 day): 1.2 g; KIDNEY_R (time 14 day): 1.2 g; KIDNEY_TOTAL (time 14 day): 2.4 g; KIDNEY_L (time 28 day): 1.3 g; KIDNEY_R (time 28 day): 1.3 g; KIDNEY_TOTAL (time 28 day): 2.7 g; LIVER (time 7 day): 12.3 g; LIVER (time 14 day): 14.5 g; LIVER (time 28 day): 16.3 g; A/G (time 7 day): 0.9; ALP (time 7 day): 1766.2 IU/L; ALT (time 7 day): 40.6 IU/L; AST (time 7 day): 71 IU/L; BUN (time 7 day): 14.4 mg/dL; CRE (time 7 day): 0.2 mg/dL; Ca (time 7 day): 11.1 mg/dL; Cl (time 7 day): 105.2 meq/L; DBIL (time 7 day): 0.01 mg/dL; GLC (time 7 day): 195 mg/dL; IP (time 7 day): 7 mg/dL; K (time 7 day): 3.9 meq/L; LDH (time 7 day): 109 IU/L; Na (time 7 day): 143.4 meq/L; PL (time 7 day): 143 mg/dL; RALB (time 7 day): 2.7 g/dL; TBIL (time 7 day): 0.042 mg/dL; TC (time 7 day): 74.6 mg/dL; TG (time 7 day): 84.4 mg/dL; TP (time 7 day): 5.8 g/dL; gamma-GTP (time 7 day): 1.4 IU/L; A/G (time 14 day): 0.8; ALP (time 14 day): 1573.2 IU/L; ALT (time 14 day): 40 IU/L; AST (time 14 day): 65 IU/L; BUN (time 14 day): 15.2 mg/dL; CRE (time 14 day): 0.2 mg/dL; Ca (time 14 day): 11 mg/dL; Cl (time 14 day): 105.6 meq/L; DBIL (time 14 day): 0.01 mg/dL; GLC (time 14 day): 191.6 mg/dL; IP (time 14 day): 6.8 mg/dL; K (time 14 day): 4.1 meq/L; LDH (time 14 day): 84.8 IU/L; Na (time 14 day): 143 meq/L; PL (time 14 day): 158.2 mg/dL; RALB (time 14 day): 2.8 g/dL; TBIL (time 14 day): 0.038 mg/dL; TC (time 14 day): 74.2 mg/dL; TG (time 14 day): 159.4 mg/dL; TP (time 14 day): 6.2 g/dL; gamma-GTP (time 14 day): 0.8 IU/L; A/G (time 28 day): 0.8; ALP (time 28 day): 1032.4 IU/L; ALT (time 28 day): 36 IU/L; AST (time 28 day): 59.8 IU/L; BUN (time 28 day): 15.8 mg/dL; CRE (time 28 day): 0.2 mg/dL; Ca (time 28 day): 10.7 mg/dL; Cl (time 28 day): 105.8 meq/L; DBIL (time 28 day): 0.016 mg/dL; GLC (time 28 day): 190.2 mg/dL; IP (time 28 day): 6 mg/dL; K (time 28 day): 3.8 meq/L; LDH (time 28 day): 58.6 IU/L; Na (time 28 day): 142.8 meq/L; PL (time 28 day): 152.2 mg/dL; RALB (time 28 day): 2.9 g/dL; TBIL (time 28 day): 0.034 mg/dL; TC (time 28 day): 80.6 mg/dL; TG (time 28 day): 141.4 mg/dL; TP (time 28 day): 6.5 g/dL; gamma-GTP (time 28 day): 1 IU/L
